The values that follow come from patent US20250171451A1, “NOVEL HETEROCYCLIC COMPOUND AND PHARMACEUTICAL COMPOSITION COMPRISING SAME” (Samjin Pharmaceutical Co., Ltd., priority 2022, published 2025).

Molecules are shown by their SMILES. A value given as a limit tells only on which side of the number the result lay.

Experiment [1] concerns the target T1, recombinant GST-TEAD1 proteins (209 to 426 a.a.) (Homo sapiens, UniProt P28347).
T1 construct: recombinant GST-TEAD1 proteins (209 to 426 a.a.)
The experiment can be described thus: Evaluation of palmitoylation of TEAD protein. The format is biochemical. Conditions: 5 μM compound, 15 minutes preincubation, 3 μM alkyne palmitoyl-CoA 30 minutes, pH 6.4, vs DMSO control. Here is the method:
Each compound corresponding to a concentration of 5 μM was added to recombinant GST-TEAD1 proteins (209 to 426 a.a.) and cultured for 15 minutes. For an autopalmitoylation reaction of proteins after culturing, 3 μM alkyne palmitoyl-CoA (Cayman chemical) and 50 mM MES buffer (pH 6.4) were added and cultured for 30 minutes, after which 1% of sodium dodecyl sulfate (SDS) was added to stop the reaction. After that, biotinylation was performed through a CLICK (Click chemistry tools) reaction, and then a protein solution was concentrated to prepare a sample.
Analysis of the sample was performed using SDS-PAGE and streptavidin HRP (Thermo scientific). The resulting values were quantified using an Image J (NIH). For the intensity of the band obtained from Streptavidin blot, a palmitoylation inhibitory activity was analyzed based on the control group (DMSO). The normalization of each sample was performed using an anti-GST (91G1) (cell signaling) antibody.

The subject of experiment [2] is TEAD response element (TRE) luciferase reporter in MCF-7 cell lines. Nature of the experiment: TEAD response element (TRE) reporter assay. The experiment is classed as cell-based. Conditions: Homo sapiens, MCF7; 0.2 μM compound, 24 hours, MCF-7 TEAD reporter cells, relative to vehicle (1% DMSO). Here is the method: MCF-7 cell lines injected with TEAD reporter genes expressing firefly luciferase upon activation of TEAD response element (TRE) were obtained from BPS bioscience (#60618). The TEAD reporter genes were injected to stable expression in the MCF-7 cell lines.
TEAD reporter genes expressing firefly luciferase upon activation of TEAD response element (TRE) were injected with TEAD reporter genes to ensure stable expression of the TEAD reporter genes. Here, the TEAD reporter genes expresses firefly luciferase upon activation of TEAD response element (TRE). The cells were cultured in a cell-only culture medium (BPS bioscience) to which 10 μg/mL insulin (Sigma) was added at 37° C. and 5% CO2.
In 24 hours after dispensing said cells into a 96-well plate, each of the compounds of the examples or a vehicle solvent (final 1% DMSO) was treated by being diluted with a serum-free culture medium so that the final concentration became 0.2 μM. In 24 hours after said treatment, a luciferase assay working solution (ONE-Step Luciferase assay reagent; BPS bioscience) containing a luciferase substrate was treated in each well at 100 μL, and then left in a shaker for 15 minutes to be well mixed. Then, a degree of luminescence generated by luciferase expressed according to TEAD activation was measured by a microplate reader (TECAN). A relative activity of luciferase […], and the results are shown in table 8 below.
For orientation: Reporter assays use an easily measured gene product as a stand-in for the process of interest.

What is called inhibition is how much of the control response was suppressed.

T1 sequence (P28347 209-426): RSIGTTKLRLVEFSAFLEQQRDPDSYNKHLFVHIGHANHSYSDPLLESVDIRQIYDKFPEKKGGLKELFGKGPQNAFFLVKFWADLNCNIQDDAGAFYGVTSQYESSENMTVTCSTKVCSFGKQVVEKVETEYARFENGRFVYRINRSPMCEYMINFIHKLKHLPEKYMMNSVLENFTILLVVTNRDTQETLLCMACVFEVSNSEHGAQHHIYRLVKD

Take `C=CC(=O)Nc1cnc2ncn(Cc3ccc(C(F)(F)F)cc3)c2c1` [Compound 30, N-(1-(4-(trifluoromethyl)benzyl)-1H-imidazo[4,5-b]pyridin-6-yl)acrylamide]: the inhibition at 5 µM in experiment [1] fell in the range of 40 to 80%. The same molecule returned an inhibition at 0.2 µM in experiment [2] below 30%.
Consider `C=CC(=O)Nc1cnc2c(n1)c(C)nn2Cc1ccc(C(F)(F)F)cc1` [Compound 31, N-(3-methyl-1-(4-(trifluoromethyl)benzyl)-1H-pyrazolo[3,4-b]pyrazin-5-yl)acrylamide], for which the inhibition at 5 µM in experiment [1] is 40 to 80%. In addition, the inhibition at 0.2 µM in experiment [2] was above 50%.
Turning to `C=CC(=O)Nc1ccc2c(C)nn(Cc3ccc(C(F)(F)F)cc3)c2c1` [Compound 32, N-(3-methyl-1-(4-(trifluoromethyl)benzyl)-1H-indazol-6-yl)acrylamide], the inhibition at 5 µM in experiment [1] was in the range of 40 to 80%. Moreover, the inhibition at 0.2 µM in experiment [2] is above 50%.
Consider `C=CC(=O)Nc1ccc2c(c1)c(C)nn2Cc1ccc(C(F)(F)F)cc1` [Compound 33, N-(3-methyl-1-(4-(trifluoromethyl)benzyl)-1H-indazol-5-yl)acrylamide], for which the inhibition at 5 µM in experiment [1] lay within 40 to 80%. Besides, the inhibition at 0.2 µM in experiment [2] is above 50%.
Turning to `C=CC(=O)Nc1ccc2cnn(-c3ccc(C(F)(F)F)cc3)c2c1` [Compound 34, N-(1-(4-(trifluoromethyl)phenyl)-1H-indazol-6-yl)acrylamide], in experiment [1], the inhibition at 5 µM fell in the range of 40 to 80%. The inhibition at 0.2 µM in experiment [2] fell in the range of 30 to 50%.
Turning to `C=CC(=O)Nc1cnc2c(cnn2-c2ccc(C(F)(F)F)cc2)c1` [Compound 35, N-(1-(4-(trifluoromethyl)phenyl)-1H-pyrazolo[3,4-b]pyridin-5-yl)acrylamide], in experiment [1], the inhibition at 5 µM was 40 to 80%. This molecule gave an inhibition at 0.2 µM in experiment [2] above 50%.
As for `C=CC(=O)Nc1cnc2c(ccn2-c2ccc(C(F)(F)F)cc2)c1` [Compound 36, N-(1-(4-(trifluoromethyl)phenyl)-1H-pyrrolo[2,3-b]pyridin-5-yl)acrylamide], the inhibition at 5 µM in experiment [1] is above 80%. Besides, the inhibition at 0.2 µM in experiment [2] was above 50%.
For `C=CC(=O)Nc1cnc2c(c1)c(C)cn2-c1ccc(C2CCCCC2)cc1` [Compound 37, N-(1-(4-cyclohexylphenyl)-3-methyl-1H-pyrrolo[2,3-b]pyridin-5-yl)acrylamide], the inhibition at 5 µM in experiment [1] is above 80%. In experiment [2], the inhibition at 0.2 µM was below 30%.
Turning to `C=CC(=O)Nc1ccc2c(Br)nn(Cc3ccc(C(F)(F)F)cc3)c2c1` [Compound 38, N-(3-bromo-1-(4-(trifluoromethyl)benzyl)-1H-indazol-6-yl)acrylamide], in experiment [1], the inhibition at 5 µM is above 80%. The same molecule gave an inhibition at 0.2 µM in experiment [2] of 30 to 50%.
On to `C=CC(=O)Nc1ccc2c(c1)CCN2c1ccc(C(F)(F)F)cc1` [Compound 39, N-(1-(4-(trifluoromethyl)phenyl)indolin-5-yl)acrylamide], for which the inhibition at 5 µM in experiment [1] is 40 to 80%. For the same molecule, in experiment [2], the inhibition at 0.2 µM was 30 to 50%.
As to `C=CC(=O)Nc1cnc2c(n1)c(C)cn2-c1ccc(C(F)(F)F)cc1` [Compound 41, N-(7-methyl-5-(4-(trifluoromethyl)phenyl)-5H-pyrrolo[2,3-b]pyrazin-2-yl)acrylamide], in experiment [1], the inhibition at 5 µM fell in the range of 40 to 80%. Also, the inhibition at 0.2 µM in experiment [2] is above 50%.
For `C=CC(=O)Nc1cnc2c(c1)c(C)cn2Cc1ccc(C(C)(C)C)cc1` [Compound 44, N-(1-(4-(tert-butyl)benzyl)-3-methyl-1H-pyrrolo[2,3-b]pyridin-5-yl)acrylamide], in that order: 40 to 80% and below 30%.
For `C=CC(=O)Nc1cnc2c(c1)c(C)cn2Cc1ccc(OC(F)(F)F)cc1` [Compound 45, N-(3-methyl-1-(4-(trifluoromethoxy)benzyl)-1H-pyrrolo[2,3-b]pyridin-5-yl)acrylamide], the inhibition at 5 µM in experiment [1] was 40 to 80%. Further, the inhibition at 0.2 µM in experiment [2] was above 50%.
Consider `C=CC(=O)Nc1cnc2c(ccn2-c2ccc(C(F)(F)F)cc2)n1` [Compound 46, N-(5-(4-(trifluoromethyl)phenyl)-5H-pyrrolo[2,3-b]pyrazin-2-yl)acrylamide], for which the inhibition at 5 µM in experiment [1] was in the range of 40 to 80%. This molecule also came in with an inhibition at 0.2 µM in experiment [2] below 30%.
As to `C=CC(=O)Nc1cnc2c(c1)c(C)cn2-c1ccc(C(C)C)cc1` [Compound 47, N-(1-(4-isopropylphenyl)-3-methyl-1H-pyrrolo[2,3-b]pyridin-5-yl)acrylamide], the inhibition at 5 µM in experiment [1] was above 80%. The molecule also yielded an inhibition at 0.2 µM in experiment [2] of 30 to 50%.
Turning to `C=CC(=O)Nc1cnc2c(c1)c(C)nn2CCC(C)C` [Compound 48, N-(1-isopentyl-3-methyl-1H-pyrazolo[3,4-b]pyridin-5-yl)acrylamide], in experiment [1], the inhibition at 5 µM fell in the range of 40 to 80%. Besides, in experiment [2], the inhibition at 0.2 µM was above 50%.
As to `C=CC(=O)Nc1cnc2c(c1)c(C)nn2Cc1ccc(OC(F)(F)F)cc1` [Compound 49, N-(3-methyl-1-(4-(trifluoromethoxy)benzyl)-1H-pyrazolo[3,4-b]pyridin-5-yl)acrylamide], the inhibition at 5 µM in experiment [1] lay in the range of 40 to 80%. In experiment [2], this molecule came in with an inhibition at 0.2 µM below 30%.
As to `C=CC(=O)Nc1cnc2c(c1)c(C)nn2-c1ccc(C(C)C)cc1` [Compound 51, N-(1-(4-isopropylphenyl)-3-methyl-1H-pyrazolo[3,4-b]pyridin-5-yl)acrylamide], in experiment [1], the inhibition at 5 µM is above 80%. The molecule further registered an inhibition at 0.2 µM in experiment [2] below 30%.
In the case of `C=CC(=O)Nc1cnc2c(c1)c(C)nn2-c1cccc(C(F)(F)F)c1` [Compound 52, N-(3-methyl-1-(3-(trifluoromethyl)phenyl)-1H-pyrazolo[3,4-b]pyridin-5-yl)acrylamide], the inhibition at 5 µM in experiment [1] was 40 to 80%. This molecule showed an inhibition at 0.2 µM in experiment [2] above 50%.
Regarding `C=CC(=O)Nc1cnc2c(c1)c(C)cn2Cc1ccc(C(F)(F)F)c(OC)c1` [Compound 53, N-(1-(3-methoxy-4-(trifluoromethyl)benzyl)-3-methyl-1H-pyrrolo[2,3-b]pyridin-5-yl)acrylamide], in experiment [1], the inhibition at 5 µM was below 40%. In addition, in experiment [2], the inhibition at 0.2 µM is above 50%.
Regarding `C=CC(=O)Nc1cnc2c(c1)c(C)cn2Cc1cccc(C(F)(F)F)c1` [Compound 55, N-(3-methyl-1-(3-(trifluoromethyl)benzyl)-1H-pyrrolo[2,3-b]pyridin-5-yl)acrylamide], the inhibition at 5 µM in experiment [1] was in the range of 40 to 80%. The inhibition at 0.2 µM in experiment [2] was above 50%.
For the molecule `C=CC(=O)Nc1cnc2c(c1)c(C)nn2Cc1cccc(C(F)(F)F)c1` [Compound 56, N-(3-methyl-1-(3-(trifluoromethyl)benzyl)-1H-pyrazolo[3,4-b]pyridin-5-yl)acrylamide], the inhibition at 5 µM in experiment [1] was below 40%. The same molecule gave an inhibition at 0.2 µM in experiment [2] above 50%.
The corresponding values for `C=CC(=O)Nc1cnc2c(c1)c(C)cn2C1CCCCC1` [Compound 57, N-(1-cyclohexyl-3-methyl-1H-pyrrolo[2,3-b]pyridin-5-yl)acrylamide] are 40 to 80% and below 30%.
Consider `C=CC(=O)Nc1cnc2c(c1)c(C)cn2-c1ccc(OC(F)(F)F)cc1` [Compound 58, N-(3-methyl-1-(4-(trifluoromethoxy)phenyl)-1H-pyrrolo[2,3-b]pyridin-5-yl)acrylamide], for which the inhibition at 5 µM in experiment [1] is above 80%. The same molecule registered an inhibition at 0.2 µM in experiment [2] below 30%.
Consider `C=CC(=O)Nc1cnc2c(c1)c(C)cn2-c1ccc(C(F)(F)F)c(OC)c1` [Compound 59, N-(1-(3-methoxy-4-(trifluoromethyl)phenyl)-3-methyl-1H-pyrrolo[2,3-b]pyridin-5-yl)acrylamide], for which the inhibition at 5 µM in experiment [1] was above 80%. The inhibition at 0.2 µM in experiment [2] lay in the range of 30 to 50%.
In the case of `C=CC(=O)Nc1cnc2c(c1)c(C)nn2Cc1ccc(C(C)(C)C)cc1` [Compound 60, N-(1-(4-(tert-butyl)benzyl)-3-methyl-1H-pyrazolo[3,4-b]pyridin-5-yl)acrylamide], the inhibition at 5 µM in experiment [1] fell in the range of 40 to 80%. In experiment [2], this molecule displayed an inhibition at 0.2 µM below 30%.
As for `C=CC(=O)Nc1cnc2c(c1)c(C)nn2Cc1ccc(C(F)(F)F)c(OC)c1` [Compound 61, N-(1-(3-methoxy-4-(trifluoromethyl)benzyl)-3-methyl-1H-pyrazolo[3,4-b]pyridin-5-yl)acrylamide], the inhibition at 5 µM in experiment [1] is below 40%. Besides, in experiment [2], the inhibition at 0.2 µM is above 50%.
On to `C=CC(=O)Nc1cnc2c(c1)c(C)nn2Cc1ccc(C(F)(F)F)s1` [Compound 62, N-(3-methyl-1-((5-(trifluoromethyl)thiophen-2-yl)methyl)-1H-pyrazolo[3,4-b]pyridin-5-yl)acrylamide], for which the inhibition at 5 µM in experiment [1] was in the range of 40 to 80%. In addition, in experiment [2], the inhibition at 0.2 µM is 30 to 50%.
